Measurements: paper PMC8001783, “New Lignanamides with Antioxidant and Anti-Inflammatory Activities Screened Out and Identified from Warburgia ugandensis Combining Affinity Ultrafiltration LC-MS with SOD and XOD Enzymes” (Antioxidants, 2021)
Marks after values point to notes of the source that are not given here.

Columns and labels:
COX-2 (human) = target: T1, COX-2 (human) (Homo sapiens, UniProt P35354); experiment: In vitro COX-2 inhibitory assay (COX-2 (human) inhibitor screening kit); format: biochemical; conditions: for COX-2 inhibitory activity compared with the positive control indomethacin: in words, Figure 7; for IC50: fluorescence, ex 560 nm / em 590 nm, triplicate
T1 construct: purchased Beyotime Biotechnology (Shanghai, China) S0168
T1 sequence (P35354 18-604): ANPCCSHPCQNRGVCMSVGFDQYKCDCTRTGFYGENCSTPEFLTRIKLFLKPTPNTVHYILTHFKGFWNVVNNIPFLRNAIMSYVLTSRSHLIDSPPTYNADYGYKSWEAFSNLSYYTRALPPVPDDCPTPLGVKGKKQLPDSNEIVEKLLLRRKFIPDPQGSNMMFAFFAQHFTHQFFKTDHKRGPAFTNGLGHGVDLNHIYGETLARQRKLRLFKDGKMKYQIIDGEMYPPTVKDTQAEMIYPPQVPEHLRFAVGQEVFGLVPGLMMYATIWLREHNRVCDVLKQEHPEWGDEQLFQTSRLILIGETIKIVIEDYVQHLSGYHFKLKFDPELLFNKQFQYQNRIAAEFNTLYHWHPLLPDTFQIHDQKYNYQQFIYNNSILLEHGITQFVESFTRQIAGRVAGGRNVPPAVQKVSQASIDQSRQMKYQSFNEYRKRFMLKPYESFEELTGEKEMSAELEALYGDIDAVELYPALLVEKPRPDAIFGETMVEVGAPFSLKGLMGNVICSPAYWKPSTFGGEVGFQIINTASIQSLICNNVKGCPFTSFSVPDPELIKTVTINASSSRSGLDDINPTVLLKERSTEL
Method: Firstly, samples were dissolved in DMSO, and prepared into a series of solutions with different concentrations. COX-2 cofactor working solution, COX-2 working solution, COX-2 probe, and COX-2 substrate were prepared according to manufacturer’s instructions, and then diluted 10 times with COX-2 assay buffer, respectively. Secondly, 150 µL Tris-HCl (pH = 7.8), 10 µL COX-2 cofactor working solution, 10 µL COX-2 working solution, and 10 µL sample solution were sequentially added in the 96-well black plates, mixed and incubated at 37 °C for 10 min. The COX-2 working solution of the blank control group was replaced with an equal volume of COX-2 assay buffer, and the sample was replaced with an equal volume of DMSO; the sample of the 100% enzyme activity control group was replaced with an equal volume of DMSO. Thirdly, 10 µL COX-2 probe was added into each well. Finally, 10 µL of COX-2 substrate was quickly added into each well, and incubated at 37 °C in the darkness for 5 min, and followed by the fluorescence measurement. The excitation and emission wavelengths were 560 nm and 590 nm, respectively. […] The experiments were performed in triplicate. The COX-2 inhibitory activity was expressed as IC50. The inhibition of COX-2 was calculated according to the following formula:COX-2 inhibitory activity (%) = (RFU100%Enzyme − RFUSample)/ (RFU100%Enzyme − RFUBlank) × 100,(3) where COX-2 inhibitory activity (%) was plotted against the concentration of samples to acquire the IC50. RFU100%Enzyme, relative fluorescence unit of 100% enzyme control group; RFUSample, relative fluorescence unit of sample; RFUBlank, relative fluorescence unit of blank group.

[1] = test system: superoxide dismutase (SOD); experiment: Affinity ultrafiltration LC-MS/MS with SOD (relative binding affinity); design: key: -: No binding affinity; conditions: peaks of WUE-A4, SOD 2 U, 37 °C 1 h, n = 3
Method: (§1) The experimental conditions were proposed according to previous relevant studies. Briefly, the optimized experiment was composed of three steps. Incubation was the first step, where 100 μL WUE-A4 (10.0 mg/mL), 10 µL SOD (2 U) or XOD (2 U), and 90 µL Tris-HCl (pH = 7.8) were mixed well in 1.5 mL EP tubes, and then incubated at 37 °C in the dark for 1 h. Meanwhile, the incubation operations of inactivated enzymes (inactivated enzymes were obtained by heating enzymes in a 99 °C water bath for 10 min) were the same as the active enzymes. Adsorption was the second step, where the incubated solutions were transferred to ultrafiltration tubes with 30 KDa (for SOD) or 10 KDa (for XOD) ultrafiltration membranes and then centrifuged at 10,000 rpm for 10 min at 25 °C. Simultaneously, components which had no binding affinity to enzymes were washed out. Immediately, 300 µL of Tris-HCl solution (pH = 7.8) was added to the ultrafiltration tubes and centrifuged at 10,000 rpm for 5 min at 25 °C to remove the potential unbound components. Desorption was the third step, where 300 µL of 90% (v/v) MeOH-H2O was added and incubated for 10 min at room temperature, and the mixed solutions were centrifuged at 10,000 rpm for another 10 min at 25 °C. After that, the desorption process was repeated two times to release those components with specific bindings to SOD or XOD from the enzyme-ligand complexes. Finally, those ultrafiltrates were dried and reconstituted in 50 µL MeOH for the HPLC-UV/ESI-MS/MS analysis.
(§2) HPLC-UV/ESI-MS/MS was carried out to characterize the components in WUE-A4 before and after ultrafiltration by using a Thermo Accela 600 series HPLC connected with a TSQ Quantum Access MAX mass spectrometer (Thermo Fisher Scientific, San Jose, CA, USA). A Waters Symmetry RP-C18 column (4.6 × 250 mm, 5 µm) was used to perform chromatographic analysis at 30 °C, and the mobile phase consisted of H2O with 0.1% formic acid (A) and ACN (B). The optimized HPLC elution procedures were as follows: 0–15 min, 17% B; 15–40 min, 17–30% B, 40–42 min: 30–56% B. The flow rate was 0.8 mL/min, the injection volume was 10 µL, and the HPLC-UV chromatograms were detected at a wavelength of 254 nm. The negative ion modes were applied to obtained ESI-MS/MS data. Moreover, the parameters of instrument were set as follows: the vaporizer temperature was 350 °C, the capillary temperature was 250 °C, the spray voltage was 3000 V, the cone voltage energy was 40 V, the collision energy was 10 V, the sheath gas pressure was 40 psi, the aux gas pressure was 10 psi, the drying gas flow rate was 6.0 L/min, and the mass range was set from 50 to 1100 (m/z) in the full-scan mode. Finally, the Thermo Xcalibur ChemStation (Thermo Fisher Scientific) was used for data acquisition and analysis.
(§3) For further evaluation of the affinity binding strength between the potential ligands and the target enzymes, the relative binding affinity (RBA) was employed to compare the variation of the correlated peak areas in the UF-HPLC-UV chromatograms before and after activation. The RBA formula is expressed as RBA = Aactive/Ainactivated, where the Aactive and Ainactivated represent the peak areas obtained from the WUE-A4 samples with activated and inactivated SOD or XOD, respectively.

xanthine oxidase (XOD) = experiment: Affinity ultrafiltration LC-MS/MS with XOD (relative binding affinity); design: key: -: No binding affinity; conditions: peaks of WUE-A4, XOD 2 U, 37 °C 1 h, n = 3
Method: as §1, §2, §3

Row | Compound | COX-2 inhibitory activity compared with the positive control indomethacin (COX-2 (human)) | UF-RBA SOD (relative binding affinity = Aactive/Ainactivated) [1] | UF-RBA SOD (relative binding affinity = Aactive/Ainactivated) ([1]; listed as peak 11) | UF-RBA XOD (relative binding affinity = Aactive/Ainactivated) (xanthine oxidase (XOD)) | UF-RBA XOD (relative binding affinity = Aactive/Ainactivated) (xanthine oxidase (XOD); listed as peak 11) | UF-RBA SOD (relative binding affinity = Aactive/Ainactivated) ([1]; listed as peak 1) | IC50 (COX-2 (human)) | UF-RBA SOD (relative binding affinity = Aactive/Ainactivated) ([1]; listed as peak 14) | UF-RBA XOD (relative binding affinity = Aactive/Ainactivated) (xanthine oxidase (XOD); listed as peak 14)
1 | 1-(3,4-dihydroxy-5-methoxyphenyl)-1,2-dihydroxy-7,8-dihydroxy-N-[(3,4-dihydroxyphenyl)-ethyl]-N′-[(4-hydroxyphenyl)-ethyl]-6-methoxynaphthalene-2,3-dicarboxamide [compound 11] | almost the same inhibitory activities | - | extremely low or no binding affinities | - | extremely low or no binding affinities |  |  |  | 
2 | C[C@@H]1O[C@@H](O[C@@H]2[C@@H](O)[C@H](O)[C@@H](CO)O[C@H]2c2cc(-c3cc(=O)c4c(O)cc(O)cc4o3)cc(O)c2O)[C@H](O)[C@H](O)[C@H]1O [compound 1, 2-[3-[2-O-(6-deoxy-α-L-mannopyranosyl)-β-D-glucopyranosyl]-4,5-dihydroxyphenyl]-5,7-dihydroxy-4H-1-benzopyran-4-one] | almost the same inhibitory activities | 1.9 ± 0.1 ^a,b,c |  | 1.2 ± 0.6 ^c,d |  | 1.93 |  |  | 
3 | O=C(/C=C/c1ccc(O)c(O)c1)NCCc1ccc(O)cc1 [compound 7, N-trans-caffeoyltyramine] | almost the same inhibitory activities | 1.1 ± 0.3 ^e |  | 1.1 ± 0.3 ^c,d |  |  |  |  | 

Further lines, results first:

Row | COX-2 inhibitory activity compared with the positive control indomethacin (COX-2 (human)) | UF-RBA SOD (relative binding affinity = Aactive/Ainactivated) [1] | UF-RBA SOD (relative binding affinity = Aactive/Ainactivated) ([1]; listed as peak 11) | UF-RBA XOD (relative binding affinity = Aactive/Ainactivated) (xanthine oxidase (XOD)) | UF-RBA XOD (relative binding affinity = Aactive/Ainactivated) (xanthine oxidase (XOD); listed as peak 11) | UF-RBA SOD (relative binding affinity = Aactive/Ainactivated) ([1]; listed as peak 1) | IC50 (COX-2 (human)) | UF-RBA SOD (relative binding affinity = Aactive/Ainactivated) ([1]; listed as peak 14) | UF-RBA XOD (relative binding affinity = Aactive/Ainactivated) (xanthine oxidase (XOD); listed as peak 14) | Compound
4 |  | 1.3 ± 0.1 ^e |  | 1.3 ± 0.2 ^c,d |  |  | 713 ± 322 nM |  |  | COc1cc(C2c3c(cc(OC)c(O)c3O)C=C(C(=O)NCCc3ccc(O)cc3)C2C(=O)NCCc2ccc(O)cc2)cc(O)c1O (centres unmarked) [compound 13]
5 |  | 1.5 ± 0.1 ^c,d,e |  | 3.8 ± 0.5 ^a |  |  | 123 ± 4 nM | 1.51 | 3.76 | COc1cc(C2c3c(cc(O)c(O)c3OC)C=C(C(=O)NCCc3ccc(O)cc3)C2C(=O)NCCc2ccc(O)cc2)cc(O)c1O (centres unmarked) [compound 14]
